The text below walks through data of patent US6476076B1 (priority 1999, dated 2002).

Several values for one entry are separate records, joined by “and”; a condition that tells them apart may be missing. Equal values may be shown once. Read-outs that look alike come from different tables or passages of the source.

Data set [1] addresses T1, vanilloid receptor (rat spinal cord membrane preparations) (Rattus norvegicus, UniProt O35433).
T1 construct: determined on membrane preparations from rat spinal cord; from tissue; host or cells: rat spinal cord membranes
Description: biochemical. The data set is classed as binding.

Data set [2] deals with T2, CAP-activated channels in cultured neonatal rat dorsal root ganglion (DRG) neurons (Rattus norvegicus, UniProt O35433).
T2 construct: extracellular application of the compounds to cultured neonatal rat dorsal root ganglion (DRG) neurons; endogenous in cells; host or cells: primary cultured DRG neurons from 1 or 2 day old neonatal rats
T2 sequence (O35433 whole entry): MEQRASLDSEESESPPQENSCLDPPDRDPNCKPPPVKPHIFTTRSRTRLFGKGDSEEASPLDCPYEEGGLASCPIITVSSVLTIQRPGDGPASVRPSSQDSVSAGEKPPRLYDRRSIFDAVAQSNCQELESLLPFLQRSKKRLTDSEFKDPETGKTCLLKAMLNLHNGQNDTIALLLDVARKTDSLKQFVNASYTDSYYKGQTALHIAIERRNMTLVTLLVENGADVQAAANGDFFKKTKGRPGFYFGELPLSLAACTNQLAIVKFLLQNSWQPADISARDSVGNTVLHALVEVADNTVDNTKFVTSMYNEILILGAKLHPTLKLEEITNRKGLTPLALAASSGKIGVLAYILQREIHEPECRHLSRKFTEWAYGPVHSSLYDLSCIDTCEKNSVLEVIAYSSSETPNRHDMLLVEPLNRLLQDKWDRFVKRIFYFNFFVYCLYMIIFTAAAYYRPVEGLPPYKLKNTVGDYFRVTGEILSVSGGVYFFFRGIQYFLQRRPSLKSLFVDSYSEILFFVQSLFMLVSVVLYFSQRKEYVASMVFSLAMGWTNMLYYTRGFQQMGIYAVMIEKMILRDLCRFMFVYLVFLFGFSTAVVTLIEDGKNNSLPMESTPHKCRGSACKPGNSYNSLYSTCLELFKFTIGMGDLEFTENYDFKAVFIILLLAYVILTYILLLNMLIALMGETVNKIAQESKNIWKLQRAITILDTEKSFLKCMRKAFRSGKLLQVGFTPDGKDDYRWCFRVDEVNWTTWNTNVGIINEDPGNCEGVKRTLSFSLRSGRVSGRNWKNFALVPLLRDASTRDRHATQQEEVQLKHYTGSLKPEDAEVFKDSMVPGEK
The data set is classed as cell-based. Set-up: key: + = CAP; ++ = 10 CAP; +++ = 100 CAP.

Data set [3] relates to PBQ-induced writhing in ICR mice. Description: animal or person. The note with it: for Relative Potency (Writhing Test) / Writhing Test ED50: mouse, in vivo; for Writhing Test ED50 / ED50: ip; for ED50: Mus musculus, read-out: Writhing Test ED50. The data set is classed as in vivo, mouse. (In general: Writhing tests count abdominal constrictions after an irritant is injected.)

For data set [4], the system named is TPA-induced ear edema in ICR mice. The note with it: mouse, in vivo.
Data set [5] concerns rat eye (eye-wiping response). Conditions: in vivo.
Data set [6] concerns DRG neurons. Description: cells. The data set is classed as cell-based. Conditions: Rattus norvegicus, DRG neuron, 10 min, read-out: 45Ca Influx EC50.
In data set [7] the test system is acetic acid-induced writhing in ICR mice. Nature of the data set: animal or person. The data set is classed as in vivo, mouse. Conditions: Mus musculus, ip, read-out: Writhing Test ED50.

T1 sequence (O35433 whole entry): as above

Broadly, the Ki is the dissociation constant of the complex between target and ligand, obtained from inhibition or displacement. Consider “2-(3,4-Dimethylbenzyl)-3-{[(4-hydroxy-3-methoxybenzyl)amino]carbothioyl}propyl 3,4-Dimethylbenzoate [7b-VI]”, for which the Ki in data set [1] (read-out: Affinities (Ki)) amounted to 184 nM. Besides, in data set [2], the Activations result was “+++”. Moreover, in data set [3], the “Relative Potency (Writhing Test)” value stood at 150 and the “Writhing Test ED50” value stood at 0.002 mg/kg. For the same compound, in data set [4], the “Ear Edema Assay ID50” value was 50 μg/ear and the “Relative Potency (Ear Edema Assay)” value amounted to 0.06.
Consider “2-(3,4-Dimethylbenzyl)-3-{[(4-hydroxy-3-methoxybenzyl)amino]carbothioyl}propyl Pivalate [7b-I]”, for which, in data set [1], the “times more potent than CAP (receptor binding)” value was “ca. 280 times”. For the same compound, in data set [2], the Activations result was “++”. In data set [3], the “Relative Potency (Writhing Test)” value turned out to be 600 and the “Writhing Test ED50” value is 0.0005 mg/kg. For the same compound, in data set [4], the “Ear Edema Assay ID50” value was determined as 18 μg/ear and the “Relative Potency (Ear Edema Assay)” value amounted to 0.17. Moreover, in data set [5], the “MPP: moderate pain-producing potency” value was determined as 0.002% and the “RPP: relative pain-producing potency” value turned out to be 15.
For “2-(3,4-Dimethylbenzyl)-3-{[(4-hydroxy-3-methoxybenzyl)amino]carbothioyl}propyl benzoate [7b-V]”, the Ki in data set [1] (read-out: Affinities (Ki)) was 409 nM. For the same compound, in data set [2], the Activations entry was “++”. In addition, in data set [3], the “Relative Potency (Writhing Test)” value was 43 and the “Writhing Test ED50” value was found to be 0.007 mg/kg. In addition, in data set [4], the “Ear Edema Assay ID50” value is on record as 50 μg/ear and the “Relative Potency (Ear Edema Assay)” value amounted to 0.06.
In the case of “2-(4-Chlorobenzyl)-3-{[(4-hydroxy-3-methoxybenzyl)amino]carbothioyl}propyl Benzoate [7c-V]”, the Activations entry in data set [2] is reported as “++”. Besides, in data set [3], the “Relative Potency (Writhing Test)” value stood at 25 and the “Writhing Test ED50” value amounted to 0.012 mg/kg. Besides, in data set [4], the “Ear Edema Assay ID50” value was 17 μg/ear and the “Relative Potency (Ear Edema Assay)” value was found to be 0.18.
“2-(4-Chlorobenzyl)-3-{[(4-hydroxy-3-methoxybenzyl)amino]carbothioyl}propyl Pivalate [7c-I]”: in data set [1] (read-out: Affinities (Ki)), the Ki was found to be 54.4 nM. For the same compound, the Activations result in data set [2] is “++”. In data set [3], the “Relative Potency (Writhing Test)” value amounted to 60 and the “Writhing Test ED50” value came to 0.005 mg/kg. Moreover, in data set [4], the “Ear Edema Assay ID50” value is 22 μg/ear and the “Relative Potency (Ear Edema Assay)” value is listed as 0.14.
Consider “2-(4-t-Butylbenzyl)-3-{[(4-hydroxy-3-methoxybenzyl)amino]carbothioyl}propyl Benzoate [7d-V]”, for which, in data set [1] (read-out: Affinities (Ki)), the Ki was determined as 60.2 nM. Moreover, in data set [2], the Activations entry is “++”. For the same compound, in data set [3], the “Relative Potency (Writhing Test)” value came out at 200 and the “Writhing Test ED50” value amounted to 0.0015 mg/kg. Moreover, in data set [4], the “Ear Edema Assay ID50” value was determined as 30 μg/ear and the “Relative Potency (Ear Edema Assay)” value is on record as 0.1.
On to “2-(4-t-Butylbenzyl)-3-{[(4-hydroxy-3-methoxybenzyl)amino]carbothioyl}propyl Pivalate [7d-I]”, for which the “times more potent than CAP (receptor binding)” value in data set [1] is approximately 490 times. Moreover, the Activations result in data set [2] is listed as “++”. Moreover, in data set [3], the “Relative Potency (Writhing Test)” value is reported as 300 and the “Writhing Test ED50” value turned out to be 0.001 mg/kg. In data set [4], the “Ear Edema Assay ID50” value was 5 μg/ear and the “Relative Potency (Ear Edema Assay)” value came out at 0.6. In data set [5], the “% Reduction of response to 0.001% capsaicin” value (from here on “% Reduction of response”) was 0 (0.1) %, the “MPP: moderate pain-producing potency” value was determined as 0.003% and the “RPP: relative pain-producing potency” value was found to be 10.
For “2-Benzyl-3-{[(4-hydroxy-3-methoxybenzyl)amino]carbothioyl}propyl Benzoate [7a-V]”, the Activations entry in data set [2] is reported as “++”. In data set [3], the “Relative Potency (Writhing Test)” value is recorded as 15 and the “Writhing Test ED50” value stood at 0.02 mg/kg. In data set [4], the “Ear Edema Assay ID50” value is recorded as 20 μg/ear and the “Relative Potency (Ear Edema Assay)” value was 0.15. Besides, the “% Reduction of response” value in data set [5] was 0 (0.1) %.
In the case of “2-Benzyl-3-{[(4-hydroxy-3-methoxybenzyl)amino]carbothioyl}propyl Hexanoate [7a-III]”, the Ki in data set [1] (read-out: Affinities (Ki)) was 632 nM. In data set [2], the Activations entry was “++”. In data set [3], the “Relative Potency (Writhing Test)” value stood at 60 and the “Writhing Test ED50” value is 0.005 mg/kg.
Take “2-Benzyl-3-{[(4-hydroxy-3-methoxybenzyl)amino]carbothioyl}propyl Pivalate [7a-I]”: in data set [2], the Activations entry is “+++”. In data set [3], the “Relative Potency (Writhing Test)” value amounted to 150 and the “Writhing Test ED50” value came out at 0.002 mg/kg. Besides, in data set [4], the “Ear Edema Assay ID50” value came to 25 μg/ear and the “Relative Potency (Ear Edema Assay)” value is listed as 0.12.
With “2-Benzyl-3-{[(4-hydroxy-3-methoxybenzyl)amino]carbothioyl}propyl Stearate [7a-IV]”, in data set [1] (read-out: Affinities (Ki)), the Ki was 1870 nM. Besides, the Activations result in data set [2] is listed as “+”. Also, in data set [3], the “Relative Potency (Writhing Test)” value was 15 and the “Writhing Test ED50” value was 0.02 mg/kg.
One may read the ED50 as the midpoint of the dose-response relation. On to `COc1cc(CNC(=S)NCC(COC(=O)C(C)C)Cc2ccccc2)ccc1O` (centres unmarked) [7a-II, 2-Benzyl-3-{[(4-hydroxy-3-methoxybenzyl)amino]carbothioyl}propyl 2-Methyl Propanoate], for which affinity in data set [1] was put at a Ki of 133 nM. Besides, in data set [2], the Activations result is “+++”. Besides, in data set [3], the ED50 was found to be 0.015 mg/kg and the “Relative Potency (Writhing Test)” value came to 20.
For the compound `COCOc1ccc(CNC(=S)NCC(COC(=O)C(C)(C)C)Cc2ccc(C)c(C)c2)cc1OC` (centres unmarked) [7b-Ia], affinity in data set [1] was put at a Ki of 876 nM.
In data set [1], `COc1cc(CNC(=S)NCC(COCc2ccccc2)Cc2ccccc2)ccc1O` (centres unmarked) [9a, N-[2-Benzyl-3-(benzyloxy)propyl]-N′-(4-hydroxy-3-methoxybenzyl)thiourea] returned a Ki of 148 nM. Also, the Activations result in data set [2] is “++”.
In the same order, the values of `COc1cc(CNC(=S)NCC(COCc2ccccc2)Cc2ccc(Cl)cc2)ccc1O` (centres unmarked) [9c, N-[3-Benzyloxy-2-(4-chlorobenzyl)propyl]-N′-(4-hydroxy-3-methoxybenzyl)thiourea] are 659 nM and “++”.
What is called EC50 is the concentration needed to bring the measured effect to its halfway point. In the case of `COc1cc(CNC(=S)NCC(COC(=O)C(C)(C)C)Cc2ccc(C)c(C)c2)ccc1OCC(=O)O` (centres unmarked) [19a, 2,2-Dimethyl-propionic Acid 2-[3-(4-Carboxymethoxy-3-methoxy-benzyl)-thioureidomethyl]-3-(3,4-dimethyl-phenyl)-propyl Ester], in data set [6], the EC50 was determined as 7770 ± 800 nM. Also, the ED50 in data set [7] amounted to 0.431 mg/kg.
`COc1cc(CNC(=S)NC[C@H](COC(=O)C(C)(C)C)Cc2ccccc2)ccc1O` [(R)-7a-I] returned a Ki in data set [1] of 18.4 nM. Further, the Activations entry in data set [2] is reported as “+++”. Besides, in data set [3], the ED50 was found to be 0.008 mg/kg and the “Relative Potency (Writhing Test)” value stood at 38.
Consider `CC(=O)Oc1ccccc1C(=O)O` [Aspirin, reference compound], for which, in data set [3], the ED50 worked out at 3.5 mg/kg and the “Relative Potency (Writhing Test)” value came out at 0.086.
`COc1cc(CNC(=O)CCCC/C=C/C(C)C)ccc1O` [Capsaicin, reference compound]: the ED50 in data set [3] amounted to 0.3 mg/kg. Moreover, in data set [4], the “Ear Edema Assay ID50” value is on record as 3 μg/ear and the “antiinflammatory activity in the TPA ear edema assay (in words)” value was “strong anti-edema activity”. For the same compound, the EC50 in data set [6] turned out to be 435 nM. For the same compound, in data set [5], the “% Reduction of response” value is 55 (0.1) % and 35 (0.01) %; the “MPP: moderate pain-producing potency” value is recorded as 0.0003%; the “response to 0.001% CAP challenge 6 h posttreatment (in words)” value is reported as “attenuated eye-wiping response”.
Turning to `COc1ccc2c(c1)c(CC(=O)O)c(C)n2C(=O)c1ccc(Cl)cc1` [Indomethacin, reference compound], in data set [3], the ED50 was determined as 0.4 mg/kg and the “Relative Potency (Writhing Test)” value was 0.75.
The like results for `CN1CC[C@]23c4c5ccc(O)c4O[C@H]2[C@@H](O)C=C[C@H]3[C@H]1C5` [Morphine, reference compound] were, in that order, 1 mg/kg and 0.3.
Regarding `CCCCCCCC/C=C\CCCCCCCC(=O)NCc1ccc(O)c(OC)c1` [Olvanil, reference compound], in data set [3], the ED50 stood at 0.03 mg/kg and the “Relative Potency (Writhing Test)” value was found to be 10. In addition, in data set [4], the “Ear Edema Assay ID50” value was 30 μg/ear, the “Relative Potency (Ear Edema Assay)” value stood at 0.1 and the “antiinflammatory activity in the TPA ear edema assay (in words)” value is on record as “weak topical activity”. The ED50 in data set [7] came to 0.0174 mg/kg. Also, in data set [5], the “% Reduction of response” value came out at 0.1% and the “MPP: moderate pain-producing potency” value was “WP^c”.
Compound `C=C(C)[C@]12C[C@@H](C)[C@@]34O[C@](Cc5ccccc5)(O[C@@H]1[C@@H]3C=C(COC(=O)Cc1ccc(O)c(OC)c1)C[C@]1(O)C(=O)C(C)=C[C@@H]41)O2` [RTX, Resiniferatoxin, reference compound] yielded a Ki in data set [1] of 0.023 nM. Besides, in data set [3], the “Relative Potency (Writhing Test)” value is listed as 30,000. Further, in data set [4], the “Ear Edema Assay ID50” value was found to be 0.002 μg/ear and the “Relative Potency (Ear Edema Assay)” value is reported as 1,500. For the same compound, in data set [5], the “MPP: moderate pain-producing potency” value turned out to be 0.0001%; the “RPP: relative pain-producing potency” value was determined as 300; the “pungency, fold more potent than CAP” value is recorded as 3 fold.
Regarding `COCOc1ccc(CNC(=S)NCC(COC(=O)C(C)(C)C)Cc2ccccc2)cc1OC` (centres unmarked) [compound 10], the affinity in data set [1], expressed as Ki, was 146 nM. For the same compound, the Activations entry in data set [2] is “++”.
For “(S)-2-Benzyl-3-{[(4-hydroxy-3-methoxybenzyl)amino]carbothioyl}propyl Pivalate [(S)-7a-I]”, the Activations entry in data set [2] is “++”. In addition, in data set [3], the “Relative Potency (Writhing Test)” value is 33 and the “Writhing Test ED50” value came to 0.009 mg/kg.
